Where no end group is shown, it is not given here.
Columns and labels:
Type in all cases: in vivo, rat
[1] = tested on: osteoporotic female Sprague-Dawley rats; experiment: Lumbar vertebral bone mineral density and bone formation rate in ovariectomized osteoporotic rats, without mechanical induction; conditions: OVX rats, 4 weeks subcutaneous treatment, no mechanical induction
Experimental: FIG. 15 is a bar graph comparing the Lumbar Vertebral Bone Mineral Density obtained in osteoporotic female Sprague-Dawley rats wherein the osteoporosis was induced via an ovariectomy. The rats were treated with (1) PTH[1-31]-NH2; (2) PTH[1-34]-NH2; and PTH[1-34]-OH; and
FIG. 16 is a bar graph comparing the Lumbar Vertebral Bone Formation Rate obtained in osteoporotic female Sprague-Dawley rats wherein the osteoporosis was induced via an ovariectomy. The rats were treated with (1) PTH[1-31]-NH2; (2) PTH[1-34]-NH2; and PTH[1-34]-OH.
A series of experiments was performed comparing (1) lumbar vertebral bone mineral density, and (2) lumbar vertebral bone formation rate achieved with PTH[1-31]-NH2 and PTH[1-34]-OH compared to the preferred PTH[1-34]-NH2 analog discussed above in the absence of the mechanical induction step of the invention. The study involved a four-week treatment of female Sprague-Dawley rats at 10 months of age, and 6 months post-ovariectomy (“OVX”), which induces osteoporosis, with one of the three above-noted parathyroid hormone truncates. The rats were randomized into the following groups: sham OVX, OVX+ vehicle, OVX+PTH [1-31]-NH2 or PTH [1-34]-NH2 (obtained from Unigene Laboratories, Inc.) at 2.5, 10 or 40 μg/kg/day subcutaneous, or PTH[1-34]-OH (obtained from Bachem) at 10 μg/kg/day subcutaneous. After 4 weeks of treatment, the right femur of each animal was analyzed by DEXA and bone histomorphometry. FIG. 15 is a bar graph providing a comparison of the lumbar vertebral bone mineral density achieved with PTH[1-31]-NH2, PTH[1-34]-NH2 and PTH[1-34]-OH. FIG. 16 is a bar graph comparing the lumbar vertebral formation rates achieved with these same truncates. […] Because of the similarity of anabolic action among the above-discussed parathyroid hormones, it is therefore reasonable to expect that all known PTH analogs will advantageously function in the desired manner in the method of the present invention.

Male Sprague-Dawley rats [2] = experiment: Serum osteocalcin concentration at day 21, Groups K-R; conditions: for osteocalcin level, in words: bmx + agent daily for 21 days; for Osteocalcin mean: bmx rats, day 21, agent daily for 21 days, Groups K-R
Source text: FIG. 12 provides a measurement of the serum osteocalcin concentration (in ng/ml) in the blood of the rats in Groups K-R when the rats were sacrificed 21 days after commencement of treatment. The meaning of the abbreviated terms is the same as in FIGS. 10 and 11. […] [*=p value<0.05, while **=p value<0.01];
FIG. 12 is a bar graph which sets forth the osteocalcin levels determined, at the time of sacrifice, in the blood serum of the rats which were the subject of the analyses illustrated in FIGS. 10 and 11. As indicated above, it is well known that osteocalcin is a biochemical marker indicative of new bone growth.
The table additionally includes the standard deviations for the values obtained for each analysis, which standard deviations are also included in FIG. 12.

Male Sprague-Dawley rats [3] = experiment: High resolution radiograms of left and right femurs, Groups K-R; conditions: left femur with bmx, agent daily for 21 days
Source text: (§1) FIG. 10 (a-b) presents high resolution radiograms of the left and right femurs, respectively, from an additional series of experiments on additional groups of male Sprague-Dawley rats (6 rats per group) aged 9 weeks which were sacrificed and tested after 21 days (3 weeks). The various groups were subjected to the following treatment modalities: Group K—control day 0; Group L—control day 21; Group M—bone marrow ablation (bmx) day 0; Group N—sham day 21; Group O— bmx+phosphate buffer saline (PBS) daily for 21 days; Group P—bmx+PTH[1-34]-NH2 daily for 21 days; Group Q—bmx+ parathyroid hormone related peptide (PTHRP) daily for 21 days; and Group R—bmx+rat α-calcitonin gene related peptide (CGRP) daily for 21 days;
FIG. 10 (a-b) presents a set of high resolution radiograms of the entire left and right femurs of additional (to those described above) groups of rats, injected daily for a designated term with one or more of the following agents: phosphate buffer saline (PBS); parathyroid hormone (PTH[1-34]-NH2); parathyroid hormone related peptide (PTHrP); and calcitonin gene related peptide (CGRP). The rats chosen for test subjects were subjected to the following treatment modalities (as indicated in the lower left corner of each of the radiograms): control day 0; control day 21; bone marrow ablation (bmx) day 0; sham day 21; bmx followed by injection of PBS buffer daily for 21 days; bmx followed by injection of PTH daily for 21 days; bmx followed by injection of PTHrP daily for 21 days; and bmx followed by injection of CGRP daily for 21 days.
As shown by FIG. 10(a), the best results, i.e., the greatest bone density, was obtained in the left femur wherein the effect of the bone marrow ablation overlapped with that attributable to the administration of the various anabolic agents. As in the case of FIG. 3, the lighter, i.e, more radio-opaque, areas indicate the locations of the greatest additional bone growth.

Male Sprague-Dawley rats [4] = experiment: MicroCT analysis of femoral shafts, Groups K-R; conditions: left femoral shaft with bmx, agent for 21 days
Source text: FIG. 13(a-b) illustrate the results of Micro Computerized Tomography (MicroCT) analysis of the left (ablated) and right (non-ablated) femoral shafts of the rats of Groups K-R. The abbreviations are the same as those used in FIGS. 10-12;
FIG. 13 (a-b) provides a comparison between Micro Computerized Tomography (MicroCT) analyses of bone samples taken from the left femoral shaft (FIG. 13a) and the right femoral shaft (FIG. 13b) of rats treated in the manner indicated in FIGS. 10-12. As in the other cases discussed above, the most significant amount of new bone growth is found in the shaft of the left femur, since this shaft was subjected to the bmx treatment. […] In contrast, the right femoral shaft sections show very little or no increase in bone growth at all.

Male Sprague-Dawley rats [5] = experiment: pQCT analysis of left and right femoral shafts at day 21, Groups K-R; conditions: for Left femoral shaft Total density mean / Left femoral shaft Trabecular density mean: ablated femur; for Left femoral shaft Total density mean / Left femoral shaft Trabecular density mean / Right femoral shaft Total density mean / Right femoral shaft Trabecular density mean: day 21, agent daily for 21 days, Groups K-R; for trabecular bone density of left femoral shaft, in words: bmx, day 21; for Right femoral shaft Total density mean / Right femoral shaft Trabecular density mean: non-ablated femur
Source text: as §1
FIG. 11 (a-d) are graphical representations of the results of Peripheral Quantitative Computerized Tomography (PQCT) analyses of, respectively, the left (ablated) and right (non-ablated) femoral shafts of the rats from Groups K-R (see description of FIG. 10). FIGS. 11(a) and 11(b) illustrate the trabecular bone density observed in, respectively the left and right femoral shafts at day 21; whereas, FIGS. 11(c) and 11(d) illustrate the total bone density of, respectively, the left and right femoral shafts at the same interval. The meanings of the abbreviations used in FIGS. 11(a-d) are identical to those described above with regard to FIG. 10. […] [+=p value<0.01 vs. sham; *=p value<0.01 vs. bmx+PTH; **=p value<0.01 vs. bmx+PTH; and #=p value<0.05 vs. PBS];
An additional series of experiments was thereafter carried out with additional groups of rats (K-R) in order to (1) measure the effect of additional bone anabolic agents, i.e., other than parathyroid hormone (PTH[1-34]-NH2) and calcitonin, as well as to compare the effect(s) achieved with such parathyroid hormone with those obtained with the use of alternate anabolic agents, including parathyroid hormone related peptide (PTHrP) and calcitonin gene related peptide (CGRP). As in the case of the analyses discussed above with regard to FIGS. 3-9, in the animals tested only the left femur underwent the bone marrow ablation (bmx) procedure, i.e., there was no ablation of the right femur. Thus, as noted above, any views of the right femur in the figures described below indicating bone marrow ablation (bmx) as a treatment modality should be taken to mean that such treatment was applied to the corresponding left femur. Further, as was additionally the case above, the samples described below with regard to FIGS. 10-13 were taken from the femur shafts, rather than the corresponding distal epiphysis as in the case of FIGS. 1 and 2. The figures discussed below depict the results of end-point studies wherein the measurements were taken only at the 21 day end-point.
FIG. 11 (a-d) graphically illustrates, by means of a bar graph, the improvements in trabecular bone density and, to some extent, total bone density, in the left femoral shaft of rats subjected to the treatment modalities described above with regard to FIG. 10 (a-b); that is, control day 0; bmx day 0; control day 21; sham day 21; bmx+PBS on day 21; bmx+PTH on day 21; bmx+PTHrP on day 21; and bmx+CGRP on day 21. Again, this is attributable that (only) the left femur was subjected to the bmx treatment, and thus was the only femur wherein the effects of such bmx treatment overlapped with that of the systemic treatment with the bone anabolic agent. […] In contrast to the values obtained for the left femur, no significant amount of bone was formed in the right femur, notwithstanding whether it is trabecular bone density or total bone density which is being measured. This lack of new bone is, furthermore, attributable to the fact that the right femur had not been subjected to the bone marrow ablation (bmx) treatment.

Molecule	bone anabolic activity (lumbar vertebral bone mineral density and bone formation rate) [1]	osteocalcin level, in words (Male Sprague-Dawley rats [2])	Osteocalcin mean (Male Sprague-Dawley rats [2]) [ng/mL]	bone density on radiograms, in words (Male Sprague-Dawley rats [3])	new bone growth in MicroCT, in words (Male Sprague-Dawley rats [4])	Left femoral shaft Total density mean (Male Sprague-Dawley rats [5]) [mg/mL]	Left femoral shaft Trabecular density mean (Male Sprague-Dawley rats [5]) [mg/mL]	trabecular bone density of left femoral shaft, in words (Male Sprague-Dawley rats [5])	Right femoral shaft Total density mean (Male Sprague-Dawley rats [5]) [mg/mL]	Right femoral shaft Trabecular density mean (Male Sprague-Dawley rats [5]) [mg/mL]
PTH[1-31]-NH2 (SVSEIQLMHNLGKHLNSMERVEWLRKKLQDV-NH2; UniProt P01270 32-62, looked up, fragment) [amidated parathyroid hormone truncate obtained from Unigene Laboratories]	substantially equivalent									
rat α-calcitonin gene related peptide [CGRP]		no increase	97	satisfactory results	new bone growth, although lesser in scope	963.5	283.5	significantly improved	831.1	115.5
CC[C@H](C)[C@H](NC(=O)[C@H](CCC(=O)O)NC(=O)[C@H](CO)NC(=O)[C@@H](NC(=O)[C@@H](N)CO)C(C)C)C(=O)N[C@@H](CCC(N)=O)C(=O)N[C@@H](CC(C)C)C(=O)N[C@@H](CCSC)C(=O)N[C@@H](Cc1cnc[nH]1)C(=O)N[C@@H](CC(N)=O)C(=O)N[C@@H](CC(C)C)C(=O)NCC(=O)N[C@@H](CCCCN)C(=O)N[C@@H](Cc1cnc[nH]1)C(=O)N[C@@H](CC(C)C)C(=O)N[C@@H](CC(N)=O)C(=O)N[C@@H](CO)C(=O)N[C@@H](CCSC)C(=O)N[C@@H](CCC(=O)O)C(=O)N[C@@H](CCCN=C(N)N)C(=O)N[C@H](C(=O)N[C@@H](CCC(=O)O)C(=O)N[C@@H](Cc1c[nH]c2ccccc12)C(=O)N[C@@H](CC(C)C)C(=O)N[C@@H](CCCN=C(N)N)C(=O)N[C@@H](CCCCN)C(=O)N[C@@H](CCCCN)C(=O)N[C@@H](CC(C)C)C(=O)N[C@@H](CCC(N)=O)C(=O)N[C@@H](CC(=O)O)C(=O)N[C@H](C(=O)N[C@@H](Cc1cnc[nH]1)C(=O)N[C@@H](CC(N)=O)C(=O)N[C@@H](Cc1ccccc1)C(=O)O)C(C)C)C(C)C [PTH[1-34]-OH, reference compound]	substantially equivalent									
parathyroid hormone related peptide [PTHRP]		Significant new bone growth	124.2	satisfactory results	significant degree of improvement	1017.9	403.1	significantly improved	858.2	122.4
